The target in experiment [1] is T1, PACE4 (Homo sapiens, UniProt P29122).
T1 sequence (P29122 150-969): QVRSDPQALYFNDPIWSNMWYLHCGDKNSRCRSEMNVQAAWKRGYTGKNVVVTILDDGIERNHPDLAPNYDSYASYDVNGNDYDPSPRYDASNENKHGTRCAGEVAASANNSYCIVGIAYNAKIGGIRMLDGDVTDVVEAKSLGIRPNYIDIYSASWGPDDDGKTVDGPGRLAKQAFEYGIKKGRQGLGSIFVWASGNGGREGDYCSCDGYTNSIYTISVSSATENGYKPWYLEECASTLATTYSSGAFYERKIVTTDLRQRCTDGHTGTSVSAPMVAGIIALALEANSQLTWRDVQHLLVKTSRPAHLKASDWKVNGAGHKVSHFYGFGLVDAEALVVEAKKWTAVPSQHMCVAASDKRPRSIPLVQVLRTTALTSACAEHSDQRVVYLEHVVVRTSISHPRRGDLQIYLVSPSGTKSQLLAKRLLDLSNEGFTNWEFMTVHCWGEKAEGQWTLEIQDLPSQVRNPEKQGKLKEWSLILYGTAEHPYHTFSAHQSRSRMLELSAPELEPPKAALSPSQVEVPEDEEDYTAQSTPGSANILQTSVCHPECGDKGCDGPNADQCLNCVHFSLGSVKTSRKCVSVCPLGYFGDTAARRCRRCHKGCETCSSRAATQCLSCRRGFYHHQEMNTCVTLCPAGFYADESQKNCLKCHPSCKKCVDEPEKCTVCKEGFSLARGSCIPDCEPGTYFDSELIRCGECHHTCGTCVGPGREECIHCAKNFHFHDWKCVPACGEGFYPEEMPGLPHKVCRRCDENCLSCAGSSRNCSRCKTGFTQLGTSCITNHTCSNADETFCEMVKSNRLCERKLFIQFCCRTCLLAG
In words: Enzyme inhibition assay, fluorogenic substrate, PACE4. In kind it is biochemical. The source says: Those skilled in the art can easily determine PACE4 activity using routine experimentation. For example, the activity assay of PACE4 can be carried out in 96 well plates, and includes the use of a fluorogenic substrate, namely PyrRTKR-AMC (SEQ ID NO: 30) (AMC is amino-methyl-coumarin). The substrate and the purified enzyme are placed in the wells, and depending on the units of enzyme present, the AMC moiety will be cleaved at a certain rate, such a pmoles/sec. The resultant free AMC is now fluorescent and can be detected with a spectrofluorometer. The addition of inhibitors to the assay will yield progress curves that have lesser slopes. Based on these changes the inhibitory constants (Ki) is calculated (Fugere et al., 2002, J. Biol. Chem., 277:7648-56).
(§1) Enzyme inhibition assays for furin (FIG. 5D) were performed in 100 mM Hepes pH 7.5, 1 mM CaCl2, 1 mM β-mercaptoethanol, 0.5 μg/μL BSA. Assays for PC2 (FIG. 5E) were performed in 20 mM Bis-Tris pH 5,7, 1 mM CaCl2, 0.1% Brij-30. Assays for PC1/3, PC4, PACE4, PC5/6 and PC7 (FIGS. 5F, G, A, B and C respectively) were performed in 20 mM Bis-Tis pH 6.5, 1 mM CaCl2. All assays were performed with the substrate pyroGlu-Arg-[…]-Lys-Arg-methyl-coumaryl-7-amide (SEQ ID NO: 33) (PyrRTKR-MCA (SEQ ID NO: 34)) (Bachem, CA) at 100 μM for furin, PC1/3, PC4, PACE4 and PC5/6, 200 μM for PC2 and 250 μM for PC7. Assays were carried out at 37° C. for 30-60 min and real-time fluorescence was measured with an excitation wavelength of 370 nm and an emission wavelength of 460 nm using a Gemini XS™ 96-well spectrofluorometer and SoftMaxPro4™ software (Molecular Devices, CA). Inhibitory peptides were added to the enzymes at decreasing concentrations from 100 μM to 50 nM and incubated 5 minutes prior to the addition of substrate.

The target in experiment [2] is T2, PC4 (Homo sapiens, UniProt Q6UW60).
T2 sequence (Q6UW60 114-755): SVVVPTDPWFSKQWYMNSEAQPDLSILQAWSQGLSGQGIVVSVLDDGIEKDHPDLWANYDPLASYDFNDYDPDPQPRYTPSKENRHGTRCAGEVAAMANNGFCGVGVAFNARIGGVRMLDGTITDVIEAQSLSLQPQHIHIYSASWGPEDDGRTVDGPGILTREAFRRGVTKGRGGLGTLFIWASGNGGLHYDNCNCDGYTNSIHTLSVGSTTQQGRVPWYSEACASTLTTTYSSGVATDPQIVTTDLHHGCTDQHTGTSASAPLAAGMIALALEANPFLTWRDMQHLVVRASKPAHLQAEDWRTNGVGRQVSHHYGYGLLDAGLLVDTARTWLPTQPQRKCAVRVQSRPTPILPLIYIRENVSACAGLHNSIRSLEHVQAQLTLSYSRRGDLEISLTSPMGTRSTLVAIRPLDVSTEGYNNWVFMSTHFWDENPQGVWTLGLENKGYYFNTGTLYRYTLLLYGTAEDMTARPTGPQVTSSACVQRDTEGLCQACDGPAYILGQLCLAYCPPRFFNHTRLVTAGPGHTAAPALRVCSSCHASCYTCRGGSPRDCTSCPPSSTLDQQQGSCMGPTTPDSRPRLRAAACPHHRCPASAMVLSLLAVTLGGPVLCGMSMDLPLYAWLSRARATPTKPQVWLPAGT
As to the kind of experiment: Enzyme inhibition assay, fluorogenic substrate, PC4. In kind it is biochemical. As to the method:
as §1

With RVKR [RVKR—NH2, RVKR-NH2], the “inhibition potency on PACE4, in words” value in experiment [1] is “poor micromolar inhibitor”. For the same substance, the “inhibition potency on PC4, in words” value in experiment [2] was “poor micromolar inhibitor”.

For the origin of these results see patent US8658591B2, “Multi-LEU peptides and analogues thereof as selective PACE4 inhibitors and effective antiproliferative agents” (priority 2008, dated 2014).
